Measured values reported in patent US9957214B2, “Multifunctional radical quenchers” (ARIZONA BOARD OF REGENTS ON BEHALF OF ARIZONA STATE …, priority 2012, dated 2018).

Tests used:
FRDA lymphocytes = assay: Suppression of ROS production (DCFH-DA flow cytometry) in DEM-treated FRDA lymphocytes; format: cell-based; conditions: FRDA lymphocytes or leukemic CEM cells depleted of glutathione with DEM; compared with natural product 8
Experimental: FIG. 2. Representative flow cytometric analysis of ROS production in FRDA lymphocytes. Following pretreatment with the indicated compounds (5 and 10 μM) for 16 h, the cells were treated with 5 mM diethyl maleate (DEM) for 80 min to deplete glutathione. The cells were washed in phosphate-buffered saline and suspended in phosphate-buffered saline containing 20 mM glucose. Cells were loaded with 10 μM dichlorodihydrofluorescein diacetate (DCFH-DA) for 20 min, and the green fluorescence (DCF) was measured by flow cytometry (C6 Accuri, BD Biosciences, San Jose, Calif.), using a 488 nm excitation laser and the FL1-H channel 530±15 nm emission filter. […] A total of 10,000 events was recorded for each sample and analyzed (C6 Accuri software, BD Biosciences). […] Data are expressed as the mean±SEM (n=3).
Intracellular ROS production was measured in FRDA lymphocyte cells (GM15850, Coriell Cell Repositories, Camden, N.J.) using the oxidant sensitive fluorescent probe 2,7-dichlorodihydrofluorescein diacetate (DCFH-DA) (Molecular Probes) as described previously (Khdour et al. (2011) Pharm. Res. 28, 2896-2909). […] The samples were analyzed immediately by flow cytometry (C6 Accuri, BD Biosciences, San Jose, Calif.), using a 488 nm excitation laser and the FL1-H channel 530±15 nm emission filter. The generation of ROS, mainly peroxides, was detected as a result of the oxidation of DCFH. […]

Hsp90 = Hsp90 client protein immunodetection assay (Her2 degradation, Hsp70 induction) in BT474 cells; format: cell-based, human; conditions: 24 h
Experimental: FIG. 9. A cell-based immunodetection assay was used to monitor Hsp90 client protein, Her2 protein degradation (A), and the induction of a heat shock response Hsp70 protein levels (B) in Her2-overexpressing BT474 cell line. The effects of 40 and geldanamycin were compared to vehicle (DMSO) after treatment with varying concentrations of the compounds for 24 h. Each measurement is an average of three independent experiments run in […].
The classic method of following the cellular activity of Hsp90 inhibitors is through the proteasome-dependent degradation of Hsp90 client proteins. […] Another hallmark of Hsp90 inhibition is the induction of a heat shock response, which was evaluated by determining the Hsp70 protein levels by […]. […] The plates were read immediately on a luminometer (Clarity™ luminescence microplate reader). Readings from wells containing only control IgG and the corresponding horseradish peroxidase-linked secondary antibody were set as background and subtracted from all measured values. The average chemiluminescence signals obtained were expressed as a percentage of Her2 reduction or Hsp70 induction in comparison to vehicle (DMSO). Values were calculated from three independent experiments performed in triplicate.

For `COC1=C2CCCCCCCCCCCCCCCNC(=CC1=O)C2=O` [Compound 40], the “Suppression of ROS (in words)” value (FRDA lymphocytes) was “very effective in suppressing ROS” and the “Hsp90 inhibition judged by client proteins Her2 and Hsp70 (in words)” value (Hsp90) was “did not inhibit Hsp90”.
For `CCCCCCCCCCCCCC1=C(OC)C(=O)C=C(NCCCC(=O)OC(C)(C)C)C1=O` [Compound 7, tert-butyl 4-(4-methoxy-3,6-dioxo-5-tridecylcyclohexa-1,4-dienylamino)butanoate], the “Suppression of ROS (in words)” value (FRDA lymphocytes) was “very effective in suppressing ROS”.
